# From US20050208000A1, “Compositions and methods for prevention of photoaging” (priority 1999, published 2005)
# System: human elastin promoter
# Experiment: Transgenic mouse model of photoaging: human elastin promoter/CAT reporter activity in skin after solar simulating radiation
# Type: in vivo, mice
# Description: A transgenic mouse model which contains the human elastin promoter linked to a chloramphenicol acetyltransferase (CAT) reporter gene for testing compounds that may inhibit cutaneous photodamage has been developed. These mice express human elastin promoter activity in a tissue-specific and developmentally regulated manner. […] In addition, quantitative data can be obtained after only a single exposure to ultraviolet radiation. A test compound is applied to the skin of a transgenic mouse capable of expressing the human elastin promoter. The transgenic mouse is then exposed to solar radiation and human elastin promoter activity in the mouse is determined. The human elastin promoter activity is then compared to that in transgenic mice also exposed to an equivalent dose of solar radiation which were not treated with the test compound to determine whether or not the test compound provided protection against the solar radiation. […]
# Using this transgenic mouse line, the ability of alpha 1-antitrypsin to inhibit the effects of solar radiation on human elastin promoter activity was determined. […]
# To measure the expression of the human elastin promoter/CAT reporter gene construct in the skin of transgenic, mice and in fibroblast cultures established from these animals, CAT activity was determined. […]
substance,measurement,setting,value
alpha 1-antitrypsin,reduction in CAT activity,"topical 20 mg/ml alpha 1-antitrypsin in goat's milk versus goat's milk alone, 20 MEDs SSR on three consecutive days",69%
same,Relative increase in CAT activity (mean+S.D.),"transgenic mice, topical application to the back about 15 min before 20 MEDs SSR, three consecutive days, skin harvested 24 hours after third phototreatment, baseline of unirradiated untreated control mice standardized to one",4.5+1.0
